Activity calls are given as the source filed them. The rule behind the calls is not given here.
How the values were obtained:
[1] = system: Human immunodeficiency virus 1; test: Antiviral activity against HIV1 NL4-3 pseudovirus infected in human TZM-bl cells assessed as inhibition of viral entry into cells after 48 hrs by single-cycle infection assay; format: functional, organism-based; settings: Human immunodeficiency virus 1, NL4-3, TZM-bl
[2] = system: Human immunodeficiency virus 1; test: Antiviral activity against wild type HIV1 NL4-3 infected in human TZM-bl cells assessed as inhibition of viral replication after 2 days by luciferase reporter gene assay; format: functional, organism-based; settings: Human immunodeficiency virus 1, NL4-3, TZM-bl, 48 h
[3] = molecular target: Envelope glycoprotein gp160 (Human immunodeficiency virus type 1 group M subtype B (isolate HXB2)(HIV-1)) (UniProt P04578); test: Binding affinity to HIV-1 HXB2 gp41 N-terminal heptad repeat assessed as thermostability of compound at 10 uM after 30 mins by CD spectroscopic analysis; settings: Human immunodeficiency virus 1
[4] = molecular target: Envelope glycoprotein gp160 (Human immunodeficiency virus type 1 group M subtype B (isolate HXB2)(HIV-1)) (UniProt P04578); test: Binding affinity to HIV-1 HXB2 gp41 N-terminal heptad repeat assessed as thermostability of compound after 30 mins by CD spectroscopic analysis; settings: Human immunodeficiency virus 1
[5] = system: Human immunodeficiency virus 1; test: Antiviral activity against HIV-1 ZM214M.15 pseudovirus infected in human TZM-bl cells assessed as inhibition of viral entry into cells after 48 hrs by single-cycle infection assay; format: functional, organism-based; settings: Human immunodeficiency virus 1, ZM214M.15, TZM-bl
[6] = system: Human immunodeficiency virus 1; test: Antiviral activity against HIV-1 SC42261.8 pseudovirus infected in human TZM-bl cells assessed as inhibition of viral entry into cells after 48 hrs by single-cycle infection assay; format: functional, organism-based; settings: Human immunodeficiency virus 1, SC42261.8, TZM-bl
[7] = system: Human immunodeficiency virus 1; test: Antiviral activity against ENF-resistant HIV1 NL4-3 harboring gp41 N-terminal heptad repeat N43K mutant infected in human TZM-bl cells assessed as inhibition of viral entry into cells after 48 hrs by single-cycle infection assay; format: functional, organism-based
[8] = system: Human immunodeficiency virus 1; test: Ratio of IC50 for ENF-resistant HIV1 NL4-3 harboring gp41 N-terminal heptad repeat V38M mutant to IC50 for wild type HIV1 NL4-3; format: functional
[9] = system: Human immunodeficiency virus 1; test: Antiviral activity against ENF-resistant HIV1 NL4-3 harboring gp41 N-terminal heptad repeat I37T/N43K double mutant infected in human TZM-bl cells assessed as inhibition of viral entry into cells after 48 hrs by single-cycle infection assay; format: functional, organism-based
[10] = system: Human immunodeficiency virus 1; test: Ratio of IC50 for ENF-resistant HIV1 NL4-3 harboring gp41 N-terminal heptad repeat I37T/N43K double mutant to IC50 for wild type HIV1 NL4-3; format: functional
[11] = system: Human immunodeficiency virus 1; test: Ratio of IC50 for ENF-resistant HIV1 NL4-3 harboring gp41 N-terminal heptad repeat V38A/N42T double mutant to IC50 for wild type HIV1 NL4-3; format: functional
[12] = system: Serum; test: Metabolic stability in Sprague-Dawley rat serum at 4 mg/kg, ip measured at 0.5 to 4 hrs post dose; format: ADME, organism-based; settings: in vivo
[13] = system: Human immunodeficiency virus 1; test: Antiviral activity against ENF-resistant HIV1 NL4-3 harboring gp41 N-terminal heptad repeat V38A mutant infected in human TZM-bl cells assessed as inhibition of viral entry into cells after 48 hrs by single-cycle infection assay; format: functional, organism-based
[14] = system: Human immunodeficiency virus 1; test: Antiviral activity against ENF-resistant HIV1 NL4-3 harboring gp41 N-terminal heptad repeat Q40H mutant infected in human TZM-bl cells assessed as inhibition of viral entry into cells after 48 hrs by single-cycle infection assay; format: functional, organism-based
[15] = system: Human immunodeficiency virus 1; test: Antiviral activity against HIV-1 pseudovirus harboring Q66R/N126K double mutant; format: functional, organism-based
[16] = system: Envelope glycoprotein gp160 (Human immunodeficiency virus 1), Q72502 [V38A]; test: Binding affinity to HIV1 NL4-3 gp41 N-terminal heptad repeat V38A mutant after 30 mins by CD spectroscopic analysis
[17] = system: Human immunodeficiency virus 1; test: Ratio of IC50 for ENF-resistant HIV1 NL4-3 harboring gp41 N-terminal heptad repeat V38A mutant to IC50 for wild type HIV1 NL4-3; format: functional
[18] = molecular target: Envelope glycoprotein gp160 (Human immunodeficiency virus 1) (UniProt Q72502); test: Binding affinity to HIV1 NL4-3 gp41 N-terminal heptad repeat G36D mutant after 30 mins by CD spectroscopic analysis
[19] = molecular target: Envelope glycoprotein gp160 (Human immunodeficiency virus 1) (UniProt Q72502); test: Binding affinity to HIV1 NL4-3 gp41 N-terminal heptad repeat N43K mutant after 30 mins by CD spectroscopic analysis
[20] = system: Human immunodeficiency virus 1; test: Antiviral activity against wild type HIV1 NL4-3 infected in human TZM-bl cells assessed as inhibition of viral entry into cells after 48 hrs by single-cycle infection assay; format: functional, organism-based; settings: Human immunodeficiency virus 1, NL4-3, TZM-bl
[21] = molecular target: Envelope glycoprotein gp160 (Human immunodeficiency virus 1) (UniProt Q72502); test: Binding affinity to HIV1 NL4-3 gp41 N-terminal heptad repeat V38A/N42T double mutant after 30 mins by CD spectroscopic analysis
[22] = molecular target: Envelope glycoprotein gp160 (Human immunodeficiency virus type 1 group M subtype B (isolate HXB2)(HIV-1), UniProt P04578); test: Binding affinity to HIV-1 HXB2 gp41 N-terminal heptad repeat assessed as inhibition of 6-helix bundle formation after 30 mins by ELISA; set-up: species or system Human immunodeficiency virus 1
[23] = molecular target: Envelope glycoprotein gp160 (Human immunodeficiency virus 1) (UniProt Q72502); test: Binding affinity to HIV1 NL4-3 gp41 N-terminal heptad repeat Q40H mutant after 30 mins by CD spectroscopic analysis
[24] = molecular target: Envelope glycoprotein gp160 (Human immunodeficiency virus type 1 group M subtype B (isolate HXB2)(HIV-1)) (UniProt P04578); test: Binding affinity to HIV-1 HXB2 gp41 N-terminal heptad repeat assessed as thermostability of protein-compound complex at 10 uM after 30 mins by CD spectroscopic analysis; settings: Human immunodeficiency virus 1
[25] = system: Human immunodeficiency virus 1; test: Antiviral activity against ENF-resistant HIV1 NL4-3 harboring gp41 N-terminal heptad repeat V38M mutant infected in human TZM-bl cells assessed as inhibition of viral entry into cells after 48 hrs by single-cycle infection assay; format: functional, organism-based
[26] = system: Human immunodeficiency virus 1; test: Ratio of IC50 for ENF-resistant HIV1 NL4-3 harboring gp41 N-terminal heptad repeat D36S/V38M double mutant to IC50 for wild type HIV1 NL4-3; format: functional
[27] = system: Human immunodeficiency virus 1; test: Antiviral activity against ENF-resistant HIV1 NL4-3 harboring gp41 N-terminal heptad repeat D36S/V38M double mutant infected in human TZM-bl cells assessed as inhibition of viral entry into cells after 48 hrs by single-cycle infection assay; format: functional, organism-based
[28] = system: Human immunodeficiency virus 1; test: Ratio of IC50 for ENF-resistant HIV1 NL4-3 harboring gp41 N-terminal heptad repeat Q40H mutant to IC50 for wild type HIV1 NL4-3; format: functional
[29] = molecular target: Envelope glycoprotein gp160 (Human immunodeficiency virus 1) (UniProt Q72502); test: Binding affinity to HIV1 NL4-3 gp41 N-terminal heptad repeat I37T/N43K double mutant after 30 mins by CD spectroscopic analysis
[30] = Thermostability of the compound in PBS assessed as melting temperature at 20 uM by CD spectroscopic analysis; format: physicochemical; settings: buffer
[31] = molecular target: Envelope glycoprotein gp160 (Human immunodeficiency virus 1) (UniProt Q72502); test: Binding affinity to HIV1 NL4-3 gp41 N-terminal heptad repeat I37T mutant after 30 mins by CD spectroscopic analysis
[32] = system: Human immunodeficiency virus 1; test: Ratio of IC50 for ENF-resistant HIV1 NL4-3 harboring gp41 N-terminal heptad repeat D36G mutant to IC50 for wild type HIV1 NL4-3; format: functional
[33] = system: Human immunodeficiency virus 1; test: Ratio of IC50 for ENF-resistant HIV1 NL4-3 harboring gp41 N-terminal heptad repeat N43K mutant to IC50 for wild type HIV1 NL4-3; format: functional
[34] = system: Human immunodeficiency virus 1; test: Antiviral activity against ENF-resistant HIV1 NL4-3 harboring gp41 N-terminal heptad repeat I37T mutant infected in human TZM-bl cells assessed as inhibition of viral entry into cells after 48 hrs by single-cycle infection assay; format: functional, organism-based
[35] = system: Human immunodeficiency virus 1; test: Ratio of IC50 for ENF-resistant HIV1 NL4-3 harboring gp41 N-terminal heptad repeat I37T mutant to IC50 for wild type HIV1 NL4-3; format: functional
[36] = system: Human immunodeficiency virus 1; test: Antiviral activity against ENF-resistant HIV1 NL4-3 harboring gp41 N-terminal heptad repeat D36G mutant infected in human TZM-bl cells assessed as inhibition of viral entry into cells after 48 hrs by single-cycle infection assay; format: functional, organism-based
[37] = system: Human immunodeficiency virus 1; test: Antiviral activity against ENF-resistant HIV1 NL4-3 harboring gp41 N-terminal heptad repeat V38A/N42T double mutant infected in human TZM-bl cells assessed as inhibition of viral entry into cells after 48 hrs by single-cycle infection assay; format: functional, organism-based
[38] = system: Human immunodeficiency virus 1; test: Antiviral activity against HIV-1 SF162 pseudovirus infected in human TZM-bl cells assessed as inhibition of viral entry into cells after 48 hrs by single-cycle infection assay; format: functional, organism-based; settings: Human immunodeficiency virus 1, SF162, TZM-bl
[39] = system: Human immunodeficiency virus 1; test: Antiviral activity against wild type HIV-1; format: functional, organism-based

**Q.** Which results are given for H-TTWEEWDKKIEEYTKKIEELIKKS-OH?
**A.** IC50 [1]: 46.8 nM; IC50 [2]: 26.1 nM; Tm [3]: 66.3 °C

**Q.** Which IC50 [1] does the source give for H-MTWEAWDRAIAEYAARIEALIR-OH here?
**A.** 86.7 nM

**Q.** And the Tm [4]?
**A.** 68.2 °C

**Q.** For H-MTWEEWDKKIEEYTKKIEELI-OH, which IC50 [1] is on record?
**A.** 4.26 nM

**Q.** And the IC50 [2]?
**A.** 3.13 nM

**Q.** What about the Tm [3] of the same substance?
**A.** 76.2 °C

**Q.** What does the source list for “H-WEAWDRAIAEYAARIEALIRAAQEQQEKNEAALREL-OH”?
**A.** IC50 [5]: 0.73 nM; IC50 [6]: 1.67 nM; IC50 [7]: 2.1 nM; Ratio IC50 [8]: 1.6; IC50 [9]: 1.9 nM; Ratio IC50 [10]: 1.7; Ratio IC50 [11]: 0.6; Stability [12]: Stable; IC50 [13]: 1.4 nM; IC50 [14]: 1.2 nM; IC50 [15]: 7 nM; Activity [16]: Active; Ratio IC50 [17]: 1.3; Activity [18]: Active; Activity [19]: Active; IC50 [20]: 1.1 nM; Activity [21]: Active; IC50 [22]: 77.4 nM; Activity [23]: Active; Tm [24]: 81.2 °C; IC50 [25]: 1.7 nM; Ratio IC50 [26]: 0.9; IC50 [27]: 1 nM; Ratio IC50 [28]: 1.1; Activity [29]: Active; IC50 [1]: 1.07 nM; Tm [30]: 46.1 °C; Activity [31]: Active; Ratio IC50 [32]: 1.7; Ratio IC50 [33]: 1.9; IC50 [34]: 2 nM; Ratio IC50 [35]: 1.8; IC50 [36]: 1.9 nM; IC50 [37]: 0.6 nM; IC50 [2]: 0.48 nM; IC50 [38]: 5.75 nM; IC50 [39]: 1.34 nM

Reference: ChEMBL document CHEMBL3600303, “The N-Terminal T-T Motif of a Third-Generation HIV-1 Fusion Inhibitor Is Not Required for Binding Affinity and Antiviral Activity” (J Med Chem, 2015)
